Results from article PMC12888861, “Antibacterial activity of enmetazobactam against Acinetobacter spp.: a molecular dissection of mechanism of action and resistance determinants” (Antimicrobial Agents and Chemotherapy, 2025).
Converted amounts (≈) assume the structure as drawn. Where two headings read alike, the source gives them in different places.

Legend:
[1] = system: Acinetobacter spp. clinical isolates; assay: MBC testing, nine clinical isolates; format: cell-based; settings: for MBC relative to MIC: nine clinical isolates, most of the isolates
Method: In order to determine the bactericidal activity of enmetazobactam, MBC testing was carried out by subculturing 100 μL aliquots from wells containing antimicrobial concentrations equal to or greater than the MIC of enmetazobactam onto Mueller-Hinton agar plates. […] The MBCs were evaluated for a total of nine clinical isolates: (i) three CRAB, (ii) three carbapenem-susceptible A. baumannii, and (iii) three A. non-baumannii isolates. The plates were incubated at 37°C for 24 h, and viable colonies were counted.

[2] = system: carbapenem-resistant CHDL-producing A. baumannii isolates (OXA-23, OXA-24/40, OXA-58); assay: Checkerboard synergy assay (FIC index); format: cell-based, Acinetobacter baumannii; settings: Acinetobacter baumannii, alone or in presence of the partner
Method: Checkerboard assays were performed to assess synergistic interactions between the cefepime/enmetazobactam combination and sulbactam, as well as between enmetazobactam alone and either sulbactam or colistin. […] The assays were conducted with three multidrug-resistant A. baumannii isolates from the Spanish Multicenter Collection, each producing a different OXA-type carbapenemase: OXA-23, OXA-24/40, or OXA-58. The FIC index was calculated and interpreted as follows: FICindex ≤ 0.5, synergy; FICindex > 0.5–4, no synergy; and FICindex > 4, antagonism ([33], [34]).

PBP1a = PBP1a (Acinetobacter baumannii, UniProt A0ABX6CK30); assay: PBP-binding assay, Bocillin FL competition, membrane preparations; settings: A. baumannii ATCC 19606, read-out: IC50 (binding affinity) PBP1a
Method: (§1) The possible involvement of A. baumannii PBPs as enmetazobactam targets was evaluated. […] The PBP-binding IC50 was determined in membrane preparations from three independent experiments, following previously described protocols ([13]).
(§2) Briefly, A. baumannii cultures were grown in Mueller-Hinton broth at 37°C with shaking at 180 rpm, and 400 mL were collected in late log phase (OD₆₀₀nm= 1), washed, and resuspended in 20 mM KH₂PO₄ and 140 mM NaCl (pH 7.5). After sonication, bacterial membranes were isolated by ultracentrifugation (150,000 g, 30 min). […] The Bocillin FL signal is inversely proportional to the binding capacity of the compounds tested to PBPs ([35]). The PBPs were separated by SDS-PAGE (Bio-Rad) and visualized with Odyssey M Imager (LI-COR). The IC₅₀ values were calculated using Empiria Studio software (LI-COR). The binding affinity was determined by comparing the change of the fluorescence in the presence or absence of the tested sulfones.

PBP1b = PBP1b (Acinetobacter baumannii, UniProt A0ABX6CHI7); assay: as above; settings: A. baumannii ATCC 19606, read-out: IC50 (binding affinity) PBP1b (converted)
Method: as §1, §2

PBP2 = biological target: T1, PBP2 (Acinetobacter baumannii, UniProt D0C8Z9); assay: as above
T1 construct: endogenous in cells; host or cells: A. baumannii ATCC 19606 membrane fraction
Method: as §1, §2

PBP3 = PBP3 (Acinetobacter baumannii, UniProt A0ABX6CK25); assay: as above
Method: as §1, §2

OXA-23 [3] = biological target: T2, OXA-23 (Acinetobacter baumannii, UniProt Q9L4P2); assay: OXA-23 inhibition assay (nitrocefin hydrolysis IC50); format: biochemical
T2 construct: GST (N); made in house; host or cells: Escherichia coli BL21
Method: (§3) The Michaelis-Menten constant (Km) was determined by fitting the data to the Michaelis-Menten equation, following established protocols ([38]). The kcat (hydrolysis rate constant of the β-lactamase) was obtained by linearization of the kinetic data ([39]). To assess the possible inhibitory capacity of enmetazobactam against the CHDLs of A. baumannii, specific OXA-23 inhibition kinetics assays were performed in a Nanoquant Infinite spectrophotometer (Tecan). […] Also, the dissociation constant (koff), which represents the rate at which the enzyme-inhibitor complex dissociates (i.e., the proportion of the enzyme-inhibitor complex that dissociates per unit of time), was determined through a jump-dilution assay that monitored OXA-23 activity recovery as the enzyme-inhibitor complex dissociated. OXA-23 (1 µM) was preincubated for 30 min at 37°C with excess of inhibitors (50× IC₅₀) to ensure full acyl-enzyme complex formation. Subsequently, the mixture was diluted 1:5,000 to allow gradual complex dissociation. […] Enzymatic activity, reflecting the progressive dissociation of the acyl-enzyme complex, was monitored spectrophotometrically at 490 nm for 8 h. The resulting progress curves were fitted using GraphPad Prism (GraphPad Software, MA, USA) to equation 1 to estimate koff, where V0 is the initial, inhibited enzyme velocity; Vs is the steady-state uninhibited enzyme velocity, and t is time.

OXA-23 [4] = biological target: T2, OXA-23; assay: Jump-dilution dissociation assay (koff, t1/2) with OXA-23; format: biochemical; settings: jump dilution, accurate koff not determinable
Method: as §3
(1) P=Vs×t+(V0−Vs)×[1−exp^(−koff × t)]/koff

[5] = Acinetobacter, isolate NO-Ab84, A. bereziniae
[6] = Acinetobacter, isolate NO-Ab88, A. dijkshoorniae
[7] = isolate Ab1, A. baumannii ST 164, ADC-6, OXA-91, non-CHDLs-producing
[8] = isolate Ab4, A. baumannii ST 2, ADC-30, OXA-66, ISAba1-OXA-23
[9] = isolate Ab6, A. baumannii ST 2, ADC-30, OXA-66, ISAba1-OXA-23, TEM-12
[10] = isolate Ab9, A. baumannii ST 2, ADC-30, OXA-66, OXA-23, TEM-12
[11] = isolate Ab11, A. baumannii ST 239, ADC-2, OXA-51, non-CHDLs-producing
[12] = isolate Ab34, A. baumannii ST 2182, ADC-2, OXA-130, non-CHDLs-producing
[13] = checkerboard sulbactam x enmetazobactam, isolate Ab4 (OXA-23)
[14] = checkerboard sulbactam x enmetazobactam, isolate Ab138 (OXA-58)
[15] = checkerboard sulbactam x enmetazobactam, isolate Ab180 (OXA-24/40)
[16] = A. baumannii ATCC 19606, read-out: IC50 (binding affinity) PBP3 (converted)

T1 sequence (D0C8Z9 whole entry): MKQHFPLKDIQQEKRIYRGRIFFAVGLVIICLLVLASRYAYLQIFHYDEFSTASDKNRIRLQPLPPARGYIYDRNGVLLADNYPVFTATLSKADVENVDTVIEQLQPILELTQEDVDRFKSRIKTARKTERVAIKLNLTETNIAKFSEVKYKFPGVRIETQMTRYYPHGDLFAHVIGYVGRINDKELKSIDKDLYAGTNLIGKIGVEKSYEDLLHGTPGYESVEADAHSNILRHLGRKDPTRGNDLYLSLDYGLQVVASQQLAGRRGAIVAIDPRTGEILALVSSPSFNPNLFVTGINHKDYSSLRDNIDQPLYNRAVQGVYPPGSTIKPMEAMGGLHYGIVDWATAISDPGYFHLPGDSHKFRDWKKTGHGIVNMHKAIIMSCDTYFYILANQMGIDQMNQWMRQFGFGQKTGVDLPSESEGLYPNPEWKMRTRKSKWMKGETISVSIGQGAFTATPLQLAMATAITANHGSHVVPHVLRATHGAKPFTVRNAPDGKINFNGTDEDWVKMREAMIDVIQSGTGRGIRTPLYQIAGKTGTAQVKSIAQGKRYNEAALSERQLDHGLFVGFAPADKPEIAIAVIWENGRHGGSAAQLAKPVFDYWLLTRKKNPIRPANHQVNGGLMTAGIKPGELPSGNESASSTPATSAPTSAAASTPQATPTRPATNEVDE
Sequence of PBP3 (A0ABX6CK25 entry or part of it): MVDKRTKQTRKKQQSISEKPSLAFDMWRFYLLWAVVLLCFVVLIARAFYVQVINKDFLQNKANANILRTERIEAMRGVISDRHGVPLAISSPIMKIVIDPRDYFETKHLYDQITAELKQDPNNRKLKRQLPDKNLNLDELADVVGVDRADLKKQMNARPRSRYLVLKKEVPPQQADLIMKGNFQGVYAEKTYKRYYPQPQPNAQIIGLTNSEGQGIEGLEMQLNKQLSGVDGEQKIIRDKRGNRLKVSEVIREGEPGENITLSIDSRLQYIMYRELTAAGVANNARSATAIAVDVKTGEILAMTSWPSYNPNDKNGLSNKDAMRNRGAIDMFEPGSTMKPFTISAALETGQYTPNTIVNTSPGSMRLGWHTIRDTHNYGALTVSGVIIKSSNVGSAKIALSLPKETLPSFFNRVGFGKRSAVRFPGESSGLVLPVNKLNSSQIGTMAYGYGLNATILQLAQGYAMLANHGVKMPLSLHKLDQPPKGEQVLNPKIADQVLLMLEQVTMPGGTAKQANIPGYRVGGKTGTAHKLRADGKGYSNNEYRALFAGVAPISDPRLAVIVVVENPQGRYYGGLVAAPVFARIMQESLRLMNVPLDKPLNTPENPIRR
T2 sequence (Q9L4P2 18-273): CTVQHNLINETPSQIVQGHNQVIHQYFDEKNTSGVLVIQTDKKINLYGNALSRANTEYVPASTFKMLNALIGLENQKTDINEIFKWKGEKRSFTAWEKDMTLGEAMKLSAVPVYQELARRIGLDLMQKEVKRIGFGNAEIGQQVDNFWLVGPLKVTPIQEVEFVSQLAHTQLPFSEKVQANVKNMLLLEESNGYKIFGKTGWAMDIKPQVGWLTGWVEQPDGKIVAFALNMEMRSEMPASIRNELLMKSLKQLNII
Sequence of PBP1a (A0ABX6CK30 entry or part of it): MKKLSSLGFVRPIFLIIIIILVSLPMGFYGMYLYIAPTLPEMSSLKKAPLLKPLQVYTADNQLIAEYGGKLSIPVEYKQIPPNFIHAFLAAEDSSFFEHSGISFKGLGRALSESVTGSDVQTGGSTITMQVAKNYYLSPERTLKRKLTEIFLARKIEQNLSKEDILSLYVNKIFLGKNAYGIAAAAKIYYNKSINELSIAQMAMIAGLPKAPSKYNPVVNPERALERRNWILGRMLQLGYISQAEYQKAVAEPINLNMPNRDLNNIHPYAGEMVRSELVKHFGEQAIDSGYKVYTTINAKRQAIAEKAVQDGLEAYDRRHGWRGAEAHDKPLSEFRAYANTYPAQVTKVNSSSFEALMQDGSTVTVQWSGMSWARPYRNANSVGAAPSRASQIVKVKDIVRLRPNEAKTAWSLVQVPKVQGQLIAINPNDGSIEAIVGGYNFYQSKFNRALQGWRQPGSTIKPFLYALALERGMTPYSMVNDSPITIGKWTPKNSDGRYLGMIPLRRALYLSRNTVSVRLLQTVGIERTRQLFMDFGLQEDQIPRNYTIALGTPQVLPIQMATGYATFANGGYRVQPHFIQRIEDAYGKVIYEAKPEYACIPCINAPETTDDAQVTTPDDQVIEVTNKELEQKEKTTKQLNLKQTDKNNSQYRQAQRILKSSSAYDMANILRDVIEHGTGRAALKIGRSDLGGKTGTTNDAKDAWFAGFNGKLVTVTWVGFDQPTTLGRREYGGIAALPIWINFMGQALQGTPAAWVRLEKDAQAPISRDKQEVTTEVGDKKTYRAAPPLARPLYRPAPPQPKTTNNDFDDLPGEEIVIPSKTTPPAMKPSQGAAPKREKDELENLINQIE

Structure (SMILES) | MBC [1, 5] [µg/mL] | MBC [1, 6] [µg/mL] | MBC [1, 7] [µg/mL] | MBC [1, 8] [µg/mL] | MBC [1, 9] [µg/mL] | MBC [1, 10] [µg/mL] | MBC [1, 11] [µg/mL] | MBC [1, 12] [µg/mL] | MBC ([1]; isolate NO-Ab89, A. pittii) [µg/mL] | MBC relative to MIC [1] | MIC [2, 13] [µg/mL] | MIC [2, 14] [µg/mL] | MIC [2, 15] [µg/mL] | IC50 (PBP1a) [µM] | IC50 (PBP1b) [µM] | IC50 (PBP3; [16]) [µM] | further results
CC1(C)[C@H](C(=O)O)N2C(=O)C[C@H]2S1(=O)=O [sulbactam] | 1 (≈ 4.29 µM) | 0.5 (≈ 2.14 µM) | 1 (≈ 4.29 µM) | 16 (≈ 68.6 µM) | 16 (≈ 68.6 µM) | 4 (≈ 17.1 µM) | 2 (≈ 8.57 µM) | 0.5 (≈ 2.14 µM) | 0.5 (≈ 2.14 µM) | the same or up to twofold higher | 16 | 8 | 2 | > 274 | 9.6 | 9.73 | IC50 (PBP2; IC50 (binding affinity) PBP2, membrane preparations, A. baumannii ATCC 19606): > 274 µM; IC50 (OXA-23 [3]): 29.2 µM
C[n+]1ccn(C[C@@]2(C)[C@H](C(=O)[O-])N3C(=O)C[C@H]3S2(=O)=O)n1 [enmetazobactam] | 2 (≈ 6.36 µM) | 2 (≈ 6.36 µM) | 4 (≈ 12.7 µM) | 64 (≈ 204 µM) | 64 (≈ 204 µM) | 8 (≈ 25.5 µM) | 16 (≈ 50.9 µM) | 8 (≈ 25.5 µM) | 2 (≈ 6.36 µM) | the same or up to twofold higher | 128 | 32 | 16 | > 204 | > 204 | 13.5 | MIC ([2]; checkerboard colistin x enmetazobactam, isolate Ab4 (OXA-23)): 64 µg/mL; MIC ([2]; checkerboard colistin x enmetazobactam, isolate Ab138 (OXA-58)): 32 µg/mL; MIC ([2]; checkerboard colistin x enmetazobactam, isolate Ab180 (OXA-24/40)): 16 µg/mL; IC50 (PBP2; membrane preparations, A. baumannii ATCC 19606, read-out: IC50 (binding affinity) PBP2 (converted)): 11.5 µM; IC50 (PBP3; A. baumannii ATCC 19606, listed as Enmetazobactam, read-out: IC50 (binding affinity) PBP3 (converted)): 13.4 µM; IC50 (OXA-23 [3]; OXA-23, nitrocefin hydrolysis, 10 min preincubation at room temperature, read-out: IC50): 32.4 µM; koff relative to that of durlobactam (OXA-23 [4]): > 1,000 fold
